Test results as given in publication PMC7175122 (Biomolecules, 2020).
“Also recorded” adds a separate entry of the source. Where two headings read alike, the source gives them in different places. Blank lines part the entries; values can stand above or below the compound they belong to. Square brackets hold non-standard residues; d marks the D form. Side chains are listed from the residue outwards. Peptide text beside a SMILES is read from it. hArg = N=C(N)NCCCC[C@H](N)C(=O)O; ΔPro = O=C(O)[C@@H]1C=CCN1; Dab = NCC[C@H](N)C(=O)O; Dhp = not defined here

Key:
VEGF-A165/NRP-1 complex [1] = target: T1, VEGF-A165/NRP-1 complex (Homo sapiens, UniProt O14786); settings: cited from earlier work; for inhibition of the formation of the VEGF-A165/NRP-1 complex: concentration of 100 μM
T1 construct: purchased R&D Systems (Minneapolis, MN, USA)
T1 sequence (O14786 22-641 limits assumed): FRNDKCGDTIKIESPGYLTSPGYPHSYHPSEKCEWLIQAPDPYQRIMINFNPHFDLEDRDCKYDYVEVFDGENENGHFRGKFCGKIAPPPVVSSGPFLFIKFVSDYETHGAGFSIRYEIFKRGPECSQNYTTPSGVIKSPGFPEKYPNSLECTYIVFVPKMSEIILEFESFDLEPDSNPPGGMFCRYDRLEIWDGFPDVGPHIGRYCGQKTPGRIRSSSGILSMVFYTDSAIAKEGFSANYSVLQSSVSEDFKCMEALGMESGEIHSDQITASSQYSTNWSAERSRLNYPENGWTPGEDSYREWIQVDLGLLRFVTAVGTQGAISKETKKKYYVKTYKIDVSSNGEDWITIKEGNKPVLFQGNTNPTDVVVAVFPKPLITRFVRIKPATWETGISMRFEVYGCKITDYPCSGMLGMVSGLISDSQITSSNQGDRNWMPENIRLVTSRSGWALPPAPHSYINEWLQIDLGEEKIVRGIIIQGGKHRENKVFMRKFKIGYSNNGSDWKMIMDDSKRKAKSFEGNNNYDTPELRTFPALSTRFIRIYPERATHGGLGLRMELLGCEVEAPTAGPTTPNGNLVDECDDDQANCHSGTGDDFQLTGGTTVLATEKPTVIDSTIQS

VEGF-A165/NRP-1 complex [2] = target: T1, VEGF-A165/NRP-1 complex; test: Competitive NRP-1-binding assay (bt-VEGF-A165/NRP-1 complex inhibition, chemiluminescent detection); settings: for IC50: inhibition of VEGF-A165/NRP-1 complex formation; for inhibition values (plateau): 1–50 μM concentrations, IC50 not calculable in this range
Procedure: The method used was similar to the one previously described. The first step was a coating of a 96-well plate using 100 μL (200 ng/well) of recombinant human NRP-1. After overnight incubation at 4 °C, nonspecific binding was blocked with 0.5% BSA in PBS. Next, 50 µL of peptide in PBS in selected concentrations and 50 µL of human (bt)-VEGF-A165 (400 ng/mL) in PBS containing 4 µg/mL of heparin were added and incubated for 2 h at r.t. After washing, wells were treated with streptavidin-horseradish peroxidase conjugate in PBS (1:8000) for 45 min. Final washing was followed by an addition of 100 µL chemiluminescent substrate and the immediate quantitative determination of the luminescence. Wells incubated with (bt)-VEGF-A165 only served as a positive control (P), while not-coated by NRP-1 wells were used for a negative control (NS). Percentages of inhibition were calculated by the following formula:100% − [[(S − NS)/(P − NS)]·100%],(1) where S is the signal intensity obtained from wells incubated with the peptide. Presented data are the mean ± SEM of two or three independent experiments, each performed in triplicate.
IC50 of the peptides were calculated using the nonlinear regression function with Prism (GraphPad Software, San Diego, CA, USA). The same software was used to calculate and present the plasma stability assay results. All results are represented as an average, with error bars indicating ± SEM.
Peptides were tested by the bt-VEGF-A165/NRP-1 complex inhibition assay with chemiluminescent detection, as previously described. […] The amino acid was inserted in the same places as the Cys-Asp fragment previously. Compounds 3 and 4 were tested by the bt-VEGF-A165/NRP-1 inhibition assay at 1–50 μM concentrations.
2. Dose-response curves of synthesized peptides
The concentration-dependent inhibitory dose-curve data were plotted as the percentage inhibition normalized to the controls, with the applied curve fits calculated using GraphPad Prism (Version 5.01, GraphPad software). Data are presented as log(inhibitor) versus a normalized response-variable slope. Error bars represent means +/- SEM for two or three independent experiments. […]

[3] = parameters: method as in PMID 30881620; settings: human plasma; cited from earlier work
[4] = Degradation assay in human plasma (enzymatic stability); type: in vitro ADME; settings: human blood plasma, 37 °C; for remaining at 24 h: after 24 h, read-out: initial concentration still present in plasma; for remaining at 96 h: after 96 h, read-out: concentration remaining in plasma
Procedure: This assay was performed according to the method described previously. First, human blood plasma was preactivated in an Eppendorf ThermoMixer® Comfort (Hamburg, Germany) for 20 min at 37 °C (350 rpm). Next, the peptide dissolved in water (6 mg/mL; ~5 μmol/mL) was mixed with human plasma (~1 μmol/mL final concentration) and incubated in the same conditions. One-hundred microliters of the mixture was collected in 1.5-mL microtubes at selected time intervals (0–96 h), followed by protein precipitation by adding 100 μL of 98% ethanol and by vortexing for 1 min (3000 min^−1). Samples were centrifuged for 10 min at 4 °C (11,000 g), and 100 μL of supernatant was collected and lyophilized. Reconstituted in 100 μL of water, samples were subjected to RP-HPLC analysis. LC-MS analyses with a Shimadzu LCMS-2020 mass spectrometer (Duisburg, Germany) were done for selected samples. A detailed description of the method can be found in the Supplementary Materials. All results are represented as an average, with error bars indicating ± SEM determined from the results of two independent experiments performed in duplicates.
Compounds were incubated in human plasma at 37 °C, and at selected time intervals, samples were analyzed using RP-HPLC and LC-MS, as described previously. […] After 24 h, almost 50% of each compound’s initial concentration was still present in the plasma. Following the next time intervals, we observed a significant degradation of peptide 3 (~20% after 96 h) but a much slower decrease in the concentration of peptide 4 (~40% after 96 h). This is probably due to the slower detachment of Cys residue from the side chain (peptide 4) compared to detachment from the main chain (peptide 3). […] However, unmodified peptides tend to have short half-lives counted rather in minutes, e.g., ghrelin [48] and endomorphins, and modifications lead to extending this time often to only a few hours.
Table S4. Confidence intervals (95%) determined for calculated IC50.
Compound IC50 (µM) 95% Confidence Intervals
3. Analytical data of serum degradation
Analysis of plasma degradation products was carried out by HPLC-ESI-Q-MS with a Prominence HPLC system (binary pump system LC-20AD and autosampler SIL-20AC HT coupled to a SPD-20A UV detector and LCMS-2020 quadrupole mass detector).
Chromatographic separation was achieved on a Phenomenex Jupiter Proteo C12 column (250 × 4.6 mm) at 35 °C. Mobile phases consisted of H2O:TFA (99.95:0.05 v/v, phase A) and ACN:TFA (99.95:0.05 v/v, phase B) at a flow rate of 1.2 mL/min. […]
Elution was performed with a gradient as follows: t = 25 min., 0%–25% B. The injection volume was 15 μl. UV spectra were recorded at 190 nm.
The electrospray ionization (ESI) was operated in positive mode. […]

human blood plasma = settings: 37 °C, up to 96 h
PBS = settings: 22 °C, up to 4 h
[5] = mean ± SEM, read-out: logIC50 (converted)
[6] = reference peptide, read-out: RP IC50

Compound: ERTCDKPRR [fragment of the VEGF-A165 domain encoded by exons 7 and 8]
inhibition of the formation of the VEGF-A165/NRP-1 complex (VEGF-A165/NRP-1 complex [1]): ~100%

Compound: H-Lys(hArg)-Dab-Dhp-Arg-OH [PP]
t1/2 [3]: 51 h

Compound: N=C(N)NCCCC[C@H](N)C(=O)NCCCC[C@H](NC(=O)[C@H](CC(=O)O)NC(=O)[C@@H](N)CS)C(=O)N[C@@H](CCN)C(=O)N1CC=C[C@H]1C(=O)N[C@@H](CCCNC(=N)N)C(=O)O [Compound 1, H-Cys-Asp-Lys(hArg)-Dab-Dhp-Arg-OH] (H-CDK(hArg)[Dab][ΔPro]R-OH)
IC50 (VEGF-A165/NRP-1 complex [2]; read-out: IC50): 2.5 µM

Compound: DKPRR [CDKPRR lacking the N-terminal Cys]
percentage of inhibition of VEGF-A165/NRP-1 interaction (VEGF-A165/NRP-1 complex [1]; at 100 µM): ~ 20% | IC50 (VEGF-A165/NRP-1 complex [1]; [6]): > 100 µM

Compound: N=C(N)NCCCC[C@H](NC(=O)[C@H](CC(=O)O)NC(=O)[C@@H](N)CS)C(=O)NCCCC[C@H](N)C(=O)N[C@@H](CCN)C(=O)N1CC=C[C@H]1C(=O)N[C@@H](CCCNC(=N)N)C(=O)O [Compound 2, H-Lys(Cys-Asp-hArg)-Dab-Dhp-Arg-OH] (H-K([hArg-Asp-Cys])[Dab][ΔPro]R-OH)
IC50 (VEGF-A165/NRP-1 complex [2]; read-out: IC50): 2 µM

Compound: H-Lys(hArg)-Dab-Dhp-Arg-OH (H-K(hArg)[Dab][Dhp]R-OH; reading uncertain; also: printed as H-Lys(hArg)-Dab-Dhp-Arg-OH) [PP, parent branched peptide, previously published NRP-1 ligand]
IC50 (VEGF-A165/NRP-1 complex [1]; parent peptide, data already published, read-out: IC50): 4.3 µM

Compound: LPPR
share of A7R inhibition of NRP-1 activation by VEGF-A165 for which the sequence is responsible (VEGF-A165/NRP-1 complex [1]): 75%

Compound: CDKPRR
inhibition of the formation of the VEGF-A165/NRP-1 complex (VEGF-A165/NRP-1 complex [1]): ~100%

Further lines, with some results ahead:

IC50 (VEGF-A165/NRP-1 complex [2]; read-out: IC50): 11.4 µM | fold decrease of IC50 compared to the A7R peptide (VEGF-A165/NRP-1 complex [2]; vs A7R): seven-fold
Compound: H-CLPPR-OH [Compound 5, CLPPR]

inhibition values (plateau) (VEGF-A165/NRP-1 complex [2]): ~ 80% | IC50 (VEGF-A165/NRP-1 complex [2]; [5]): 0.0834 µM | remaining at 24 h [4]: ~50% | remaining at 96 h [4]: ~20%
Compound: N=C(N)NCCCC[C@H](N)C(=O)NCCCC[C@H](NC(=O)[C@@H](N)CS)C(=O)N[C@@H](CCN)C(=O)N1CC=C[C@H]1C(=O)N[C@@H](CCCNC(=N)N)C(=O)O [Compound 3, H-Cys-Lys(hArg)-Dab-Dhp-Arg-OH] (H-CK(hArg)[Dab][ΔPro]R-OH)

inhibition at 100 µM (VEGF-A165/NRP-1 complex [2]; 100 µM concentration, read-out: percentage inhibitory effect): 46% | IC50 (VEGF-A165/NRP-1 complex [2]; read-out: IC50): 100 µM
Compound: C[C@@H](O)[C@H](N)C(=O)N[C@@H](CCCCN)C(=O)N1CCC[C@H]1C(=O)N[C@@H](CCCNC(=N)N)C(=O)O [Tuftsin, TKPR, reference compound] (H-TKPR-OH; N-terminus and C-terminus assumed)
IC50 (VEGF-A165/NRP-1 complex [1]; [6]): ≥ 100 µM

inhibition values (plateau) (VEGF-A165/NRP-1 complex [2]): ~ 80% | IC50 (VEGF-A165/NRP-1 complex [2]; [5]): 0.064 µM | remaining at 24 h [4]: ~50% | remaining at 96 h [4]: ~40%
Compound: N=C(N)NCCCC[C@H](NC(=O)[C@@H](N)CS)C(=O)NCCCC[C@H](N)C(=O)N[C@@H](CCN)C(=O)N1CC=C[C@H]1C(=O)N[C@@H](CCCNC(=N)N)C(=O)O [Compound 4, H-Lys(Cys-hArg)-Dab-Dhp-Arg-OH] (H-K([hArg-Cys])[Dab][ΔPro]R-OH)

fragment found (PBS): dimer, minor, 4 h
Compound: H-Cys-Lys(hArg)-Dab-Dhp-Arg-OH (H-CK(hArg)[Dab][ΔPro]R-OH; SMILES N=C(N)NCCCC[C@H](N)C(=O)NCCCC[C@H](NC(=O)[C@@H](N)CS)C(=O)N[C@@H](CCN)C(=O)N1CC=C[C@H]1C(=O)N[C@@H](CCCNC(=N)N)C(=O)O)
cleaved bond (human blood plasma): Cys-Lys, first_seen; also recorded: hArg-Lys; also recorded: Lys-Dab

IC50 (VEGF-A165/NRP-1 complex [2]; [5]): 0.187 µM
Compound: H-CKPRR-OH [Compound 7, CKPRR]

IC50 (VEGF-A165/NRP-1 complex [2]; read-out: IC50): 9.3 µM | fold increase of ligand affinity compared to tuftsin (VEGF-A165/NRP-1 complex [2]; vs tuftsin): more than 11 fold
Compound: H-CTKPR-OH [Compound 6, CTKPR]

fragment found (PBS): dimer, minor, 4 h
Compound: H-Lys(Cys-hArg)-Dab-Dhp-Arg-OH (H-K([hArg-Cys])[Dab][ΔPro]R-OH)
cleaved bond (human blood plasma): Cys-hArg, first_seen; also recorded: hArg-Lys; also recorded: Lys-Dab
